Tests used:
Type in all cases: biochemical
DYRK2 (h) = molecular target: T1, DYRK2 (h) (Homo sapiens, UniProt Q92630); test: radiometric kinase assay (KinaseProfiler, Eurofins), DYRK2; conditions: in vitro radiometric kinase assay, tested at 1 nM to 10 000 nM, no pre-incubation; read-out: inhibitory activities (IC50 values) DYRK2
T1 construct: purchased Eurofins (KinaseProfiler)
T1 sequence (Q92630 1-601): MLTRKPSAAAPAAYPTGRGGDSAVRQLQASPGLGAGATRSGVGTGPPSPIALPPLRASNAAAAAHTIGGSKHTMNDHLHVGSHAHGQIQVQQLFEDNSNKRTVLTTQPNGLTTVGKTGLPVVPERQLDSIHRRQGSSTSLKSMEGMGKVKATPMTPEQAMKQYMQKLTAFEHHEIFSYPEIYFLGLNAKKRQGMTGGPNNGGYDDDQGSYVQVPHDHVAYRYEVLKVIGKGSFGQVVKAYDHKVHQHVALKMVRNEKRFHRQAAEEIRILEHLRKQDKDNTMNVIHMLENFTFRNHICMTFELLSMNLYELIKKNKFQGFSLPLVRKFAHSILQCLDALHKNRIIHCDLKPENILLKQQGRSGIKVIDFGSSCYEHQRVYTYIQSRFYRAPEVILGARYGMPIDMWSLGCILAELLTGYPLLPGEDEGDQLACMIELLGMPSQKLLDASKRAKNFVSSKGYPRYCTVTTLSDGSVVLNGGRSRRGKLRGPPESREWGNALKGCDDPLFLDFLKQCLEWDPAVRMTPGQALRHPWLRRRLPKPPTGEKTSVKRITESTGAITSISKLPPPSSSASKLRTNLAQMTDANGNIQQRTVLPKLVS
Method: (§1) The compounds were profiled in the radiometric assays (KinaseProfiler, Eurofins).
(§2) All compounds were prepared to 50x final assay concentration in 100% DMSO. This working stock of the compound was added to the assay well as the first component in the reaction, followed by the remaining components as detailed in the general assay protocols below. There was no pre-incubation step between the compound and the kinase prior to initiation of the reaction.
DYRK2 (h) was incubated with 8 mM MOPS pH 7.0, 0.2 mM EDTA, 2 mg/mL casein, 10 mM magnesium acetate and γ-^33P-ATP (specific activity and concentration as required). The reaction was initiated by the addition of the Mg/ATP mix. After incubation for 40 minutes at room temperature, the reaction was stopped by the addition of phosphoric acid to a concentration of 0.5%. An aliquot of the reaction was then spotted onto a filter and washed four times for 4 minutes in 0.425% phosphoric acid and once in methanol prior to drying and scintillation counting.
(§3) Kinase activity data were expressed as the percent remaining kinase activity in tested samples compared to the vehicle (DMSO) reactions. The compounds were tested at the following concentrations: 1 nM, 3 nM, 10 nM, 30 nM, 100 nM, 300 nM, 1000 nM, 3000 nM, and 10 000 nM; IC50 values and curve fits were then obtained.

Haspin (h) = molecular target: T2, Haspin (h) (Homo sapiens, UniProt Q8TF76); test: radiometric kinase assay (KinaseProfiler, Eurofins), Haspin; conditions: in vitro radiometric kinase assay, tested at 1 nM to 10 000 nM, no pre-incubation; read-out: inhibitory activities (IC50 values) Haspin
T2 construct: purchased Eurofins (KinaseProfiler)
T2 sequence (Q8TF76 1-798): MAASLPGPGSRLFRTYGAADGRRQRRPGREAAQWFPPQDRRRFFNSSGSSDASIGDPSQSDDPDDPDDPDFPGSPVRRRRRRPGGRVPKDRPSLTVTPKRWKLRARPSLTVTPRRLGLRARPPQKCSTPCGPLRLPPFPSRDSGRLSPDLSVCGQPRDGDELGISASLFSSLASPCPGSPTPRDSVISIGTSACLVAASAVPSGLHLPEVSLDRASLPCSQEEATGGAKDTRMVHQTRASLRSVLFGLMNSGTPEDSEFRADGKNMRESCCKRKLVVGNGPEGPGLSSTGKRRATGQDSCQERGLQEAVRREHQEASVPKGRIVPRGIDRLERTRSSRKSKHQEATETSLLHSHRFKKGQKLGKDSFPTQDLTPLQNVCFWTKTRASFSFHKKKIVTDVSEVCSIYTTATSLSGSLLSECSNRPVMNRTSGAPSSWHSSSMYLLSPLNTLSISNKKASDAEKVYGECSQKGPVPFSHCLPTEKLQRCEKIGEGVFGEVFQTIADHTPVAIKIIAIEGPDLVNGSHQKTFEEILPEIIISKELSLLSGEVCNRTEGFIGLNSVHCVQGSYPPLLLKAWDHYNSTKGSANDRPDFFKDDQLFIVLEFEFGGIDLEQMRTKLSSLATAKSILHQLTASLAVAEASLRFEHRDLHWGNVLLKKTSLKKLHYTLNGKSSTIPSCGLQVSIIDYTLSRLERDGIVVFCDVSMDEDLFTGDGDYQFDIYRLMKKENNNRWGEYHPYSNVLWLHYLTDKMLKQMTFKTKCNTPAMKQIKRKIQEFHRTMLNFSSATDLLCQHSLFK
Method in brief: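 Human Haspin in 8 mM MOPS pH 7.0 with 500 µM RARTLSFAEPG, 10 mM Mg acetate and γ-33P-ATP; compound added without preincubation. Reaction ran 40 min at room temperature, then filter-bound 33P was counted. Nine concentrations from 1 to 10 000 nM gave % remaining activity versus DMSO, and IC50 came from curve fit.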

TAF1L(h) = molecular target: T3, TAF1L(h) (Homo sapiens, UniProt Q8IZX4); test: radiometric kinase assay (KinaseProfiler, Eurofins), TAF1L; conditions: in vitro radiometric kinase assay, tested at 1 nM to 10 000 nM, no pre-incubation; read-out: inhibitory activities (IC50 values) TAF1L
T3 construct: purchased Eurofins (KinaseProfiler)
Method: as §1
Briefly, kinases were diluted in the buffer shown below prior to addition to the reaction mix: • CDKL3, TAF1L: 20 mM Tris/HCl pH 8.5, 0.2 mM EDTA, 0.1% β-mercaptoethanol, 0.01% Brij-35, 5% glycerol, 1 mg/ml BSA; • Haspin: 15 mM MOPS, 0.75 mM EDTA, 0.0075% Brij-35, 3.75% Glycerol, 150 mM NaCl, 0.1% β-mercaptoethanol, 1 mg/mLBSA; • CDKL4, CLK2, PIM1, TRB2: […], 1 mM EDTA, 0.01% Brij-35, 5% Glycerol, 0.1% β-mercaptoethanol, 1 mg/mL BSA.
as §2
TAF1L(h) was incubated with 20 mM Tris/HCl pH 8.5, 0.2 mM EDTA, 250 µM RRRFRPASPLRGPPK (SEQ ID NO. 1), 10 mM magnesium acetate and γ-^33P-ATP (specific activity and concentration as required). The reaction was initiated by the addition of the Mg/ATP mix. After incubation for 120 minutes at room temperature, the reaction was stopped by the addition of phosphoric acid to a concentration of 0.5%. An aliquot of the stopped reaction was spotted onto a filter and washed four times for 4 minutes in 0.425% phosphoric acid and once in methanol prior to drying and scintillation counting.
as §3

T3 sequence (Q8IZX4 whole entry): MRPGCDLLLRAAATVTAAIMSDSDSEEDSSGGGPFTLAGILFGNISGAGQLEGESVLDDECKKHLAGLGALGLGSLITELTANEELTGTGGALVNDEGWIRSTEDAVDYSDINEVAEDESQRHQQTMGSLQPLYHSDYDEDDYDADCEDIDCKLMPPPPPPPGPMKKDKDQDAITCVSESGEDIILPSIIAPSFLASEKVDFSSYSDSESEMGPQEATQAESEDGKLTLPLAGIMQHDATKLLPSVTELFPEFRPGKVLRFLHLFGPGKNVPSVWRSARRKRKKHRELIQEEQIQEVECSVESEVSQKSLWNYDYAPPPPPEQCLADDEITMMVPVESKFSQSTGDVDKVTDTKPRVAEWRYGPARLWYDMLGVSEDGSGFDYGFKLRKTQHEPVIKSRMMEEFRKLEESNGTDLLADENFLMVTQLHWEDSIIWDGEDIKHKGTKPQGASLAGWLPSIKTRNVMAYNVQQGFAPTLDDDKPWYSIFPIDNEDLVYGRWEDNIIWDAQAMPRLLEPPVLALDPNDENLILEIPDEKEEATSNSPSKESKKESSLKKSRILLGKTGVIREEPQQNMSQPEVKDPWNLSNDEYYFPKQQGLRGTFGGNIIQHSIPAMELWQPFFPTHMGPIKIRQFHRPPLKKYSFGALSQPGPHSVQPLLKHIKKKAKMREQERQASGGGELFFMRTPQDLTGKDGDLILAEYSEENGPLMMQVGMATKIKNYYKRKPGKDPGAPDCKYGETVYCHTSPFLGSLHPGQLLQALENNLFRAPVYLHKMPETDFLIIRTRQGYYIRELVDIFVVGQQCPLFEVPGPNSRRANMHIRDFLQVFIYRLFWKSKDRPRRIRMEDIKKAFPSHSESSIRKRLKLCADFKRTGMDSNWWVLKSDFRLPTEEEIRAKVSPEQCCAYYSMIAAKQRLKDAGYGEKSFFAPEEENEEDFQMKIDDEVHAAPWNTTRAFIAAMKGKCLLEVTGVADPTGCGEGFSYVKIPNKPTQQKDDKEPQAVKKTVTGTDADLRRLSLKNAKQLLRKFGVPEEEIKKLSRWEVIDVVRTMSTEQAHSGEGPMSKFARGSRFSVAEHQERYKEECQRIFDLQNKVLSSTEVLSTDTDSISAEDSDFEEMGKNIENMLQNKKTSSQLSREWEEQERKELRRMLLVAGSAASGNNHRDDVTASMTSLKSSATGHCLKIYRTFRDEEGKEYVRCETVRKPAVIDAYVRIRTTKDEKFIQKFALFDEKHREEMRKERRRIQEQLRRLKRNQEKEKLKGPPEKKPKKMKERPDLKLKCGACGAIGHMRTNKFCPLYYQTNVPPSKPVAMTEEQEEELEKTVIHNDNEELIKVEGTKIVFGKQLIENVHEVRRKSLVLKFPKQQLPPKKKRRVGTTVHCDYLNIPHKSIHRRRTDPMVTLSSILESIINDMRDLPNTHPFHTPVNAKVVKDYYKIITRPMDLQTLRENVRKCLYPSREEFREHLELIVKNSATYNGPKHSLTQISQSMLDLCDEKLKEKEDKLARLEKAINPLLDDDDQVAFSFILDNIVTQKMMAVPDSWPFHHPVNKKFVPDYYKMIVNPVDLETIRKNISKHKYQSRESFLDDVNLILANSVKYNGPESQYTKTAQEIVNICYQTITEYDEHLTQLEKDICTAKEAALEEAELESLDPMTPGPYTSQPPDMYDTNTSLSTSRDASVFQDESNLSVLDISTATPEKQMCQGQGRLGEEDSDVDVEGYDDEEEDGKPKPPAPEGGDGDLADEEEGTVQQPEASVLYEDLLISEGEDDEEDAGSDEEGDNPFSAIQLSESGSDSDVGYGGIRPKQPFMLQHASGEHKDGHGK

| Structure (SMILES) | IC50 (DYRK2 (h)) | IC50 (Haspin (h)) | IC50 (TAF1L(h)) |
| --- | --- | --- | --- |
| Cn1cc(-c2ccc3scc(-c4ccnc(C#N)c4)c3n2)cn1 | 500 to 3000 nM | 100 to 499 nM | 100 to 499 nM |
| Cn1cc(-c2ccc3scc(-c4cnn(Cc5ccccc5)c4)c3n2)cn1 | 3000 to 10000 nM | 100 to 499 nM | 100 to 499 nM |
| Cn1cc(-c2ccc3scc(-c4ccccc4)c3n2)cn1 [Preparative Example 2, 5-(1-methyl-1H-pyrazol-4-yl)-3-phenylthieno[3,2-b]pyridine] | 500 to 3000 nM | 100 to 499 nM | 100 to 499 nM |
| Cn1cc(-c2ccc3scc(C4=CCNCC4)c3n2)cn1 [Preparative Example 9, 5-(1-methyl-1H-pyrazol-4-yl)-3-(1,2,3,6-tetrahydropyridin-4-yl)-thieno[3.2-b]pyridine] | 3000 to 10000 nM | 500 to 3000 nM | 500 to 3000 nM |
| Cn1cc(-c2ccc3scc(-c4cccnc4)c3n2)cn1 [Preparative Example 11, 5-(1-methyl-1H-pyrazol-4-yl)-3-(pyridin-3-yl)thieno[3,2-b]pyridine] | 500 to 3000 nM | 500 to 3000 nM | 500 to 3000 nM |
| Cn1cc(-c2ccc3scc(-c4ccncc4)c3n2)cn1 [Preparative Example 13, 5-(1-methyl-1H-pyrazol-4-yl)-3-(pyridin-4-yl)thieno[3,2-b]pyridine] | 500 to 3000 nM | 20 to 99 nM | 100 to 499 nM |
| Cc1cc(-c2csc3ccc(-c4cnn(C)c4)nc23)ccn1 [Preparative Example 15, 5-(1-methyl-1H-pyrazol-4-yl)-3-(2-methylpyridin-4-yl)-thieno[3,2-b]pyridine] | 500 to 3000 nM | 100 to 499 nM | 100 to 499 nM |
| COc1cc(-c2csc3ccc(-c4cnn(C)c4)nc23)ccn1 [Preparative Example 17, 3-(2-methoxypyridin-4-yl)-5-(1-methyl-1H-pyrazol-4-yl)thieno[3.2-b]pyridine] | 100 to 499 nM | 100 to 499 nM | 100 to 499 nM |
| Cn1cc(-c2ccc3scc(-c4ccnc(F)c4)c3n2)cn1 [Preparative Example 22, 3-(2-fluoropyridin-4-yl)-5-(1-methyl-1H-pyrazol-4-yl)thieno[3,2-b]pyridine] | 500 to 3000 nM | 100 to 499 nM | 100 to 499 nM |
| Cn1cc(-c2ccc3scc(-c4ccnc(CN)c4)c3n2)cn1 [Preparative Example 28, (4-(5-(1-methyl-1H-pyrazol-4-yl)thieno[3,2-b]pyridin-3-yl)pyridin-2-yl)methanamine] | 100 to 499 nM | 20 to 99 nM | 500 to 3000 nM |
| Cc1cc(-c2csc3ccc(-c4cnn(C)c4)nc23)cc(C)n1 [Preparative Example 30, 3-(2,6-dimethylpyridin-4-yl)-5-(1-methyl-1H-pyrazol-4-yl)thieno-[3,2-b]pyridine] | 500 to 3000 nM | 100 to 499 nM | 100 to 499 nM |
| Cc1cnccc1-c1csc2ccc(-c3cnn(C)c3)nc12 [Preparative Example 32, 5-(1-methyl-1H-pyrazol-4-yl)-3-(3-methylpyridin-4-yl)thieno[3,2-b]pyridine] | 3000 to 10000 nM | 3000 to 10000 nM | 500 to 3000 nM |
| Cn1cc(-c2ccc3scc(-c4ccncc4C#N)c3n2)cn1 [Preparative Example 34, 4-(5-(1-methyl-1H-pyrazol-4-yl)thieno[3,2-b]pyridin-3-yl)nicotino-nitrile] | 500 to 3000 nM | 500 to 3000 nM | 500 to 3000 nM |
| Cn1cc(-c2ccc3scc(-c4ccncc4F)c3n2)cn1 [Preparative Example 36, 3-(3-fluoropyridin-4-yl)-5-(1-methyl-1H-pyrazol-4-yl)thieno[3,2-b]pyridine] | 500 to 3000 nM | 100 to 499 nM | 100 to 499 nM |
| Cn1cc(-c2ccc3scc(-c4ccnnc4)c3n2)cn1 [Preparative Example 40, 5-(1-methyl-1H-pyrazol-4-yl)-3-(pyridazin-4-yl)thieno[3,2-b]-pyridine] | 500 to 3000 nM | 100 to 499 nM | 100 to 499 nM |
| Cn1cc(-c2ccc3scc(-c4ccc5ncnn5c4)c3n2)cn1 [Preparative Example 53, 3-([1,2,4]-triazolo[1,5-a]pyridin-6-yl)-5-(1-methyl-1H-pyrazol-4-yl)thieno[3,2-b]pyridine] | 100 to 499 nM | 20 to 99 nM | 100 to 499 nM |
| Cn1cc(-c2ccc3scc(-c4cnn(C)c4)c3n2)cn1 [Preparative Example 63, 3,5-bis(1-methyl-1H-pyrazol-4-yl)thieno[3,2-b]pyridine] | 100 to 499 nM | 100 to 499 nM | 100 to 499 nM |
| Cn1cc(-c2ccc3scc(-c4ccns4)c3n2)cn1 [Preparative Example 67, 3-(isothiazol-5-yl)-5-(1-methyl-1H-pyrazol-4-yl)thieno[3,2-b]pyridine] | 100 to 499 nM | 20 to 99 nM | 20 to 99 nM |
| Cn1cc(-c2ccc3scc(-c4cncs4)c3n2)cn1 [Preparative Example 69, 5-(1-methyl-1H-pyrazol-4-yl)-3-(thiazol-5-yl)thieno[3,2-b]pyridine] | 100 to 499 nM | 20 to 99 nM | 20 to 99 nM |
| Cc1nsc(-c2csc3ccc(-c4cnn(C)c4)nc23)n1 [Preparative Example 71, 3-(3-methyl-1,2,4-thiadiazol-5-yl)-5-(1-methyl-1H-pyrazol-4-yl)thieno[3,2-b]pyridine] | 100 to 499 nM | 20 to 99 nM | 100 to 499 nM |
| Cn1cc(-c2ccc3scc(C(=O)c4ccccc4)c3n2)cn1 [Preparative Example 73, (5-(1-methyl-1H-pyrazol-4-yl)thieno[3,2-b]pyridin-3-yl)(phenyl)-methanone] | 3000 to 10000 nM | 3000 to 10000 nM | 3000 to 10000 nM |

From EP4483954A1 (Masarykova Univerzita, priority 2023, dated 2025)
